# Data published in patent publication US20070122483A1, “Fluocinolone acetonide drug substance polymorphic interconversion” (priority 2005, published 2007).
# Tests used:
# [1] = Polymorphic changes of FA after exposure to water (slurry), followed by 13C CP/MAS NMR; type: physicochemical; conditions: slurry 0.5 g FA in 10 ml water, stirred at room temperature for seven days, filtered and dried
# Procedure: Slurries containing 0.5 g FA in 10 ml of water were covered and stirred at room temperature for seven days. To remove the water, the samples were filtered and dried overnight at room temperature.
# Approximately 80-100 mg of sample was packed inside a 7 mm rotor. Magic-angle spinning (MAS) NMR spectra of fluocinolone acetonide (FA) were acquired using a Varian Unity Inova 400 operating at 399.8 and 100.5 MHz for ^1H and ^13C respectively. The spectra were acquired using cross-polarization (CP) with total sideband suppression and a spinning speed of 4 kHz. Additional acquisition and processing parameters are noted below:
# All spectra were externally referenced to hexamethylbenzene (HMB) (^13C, aliphatic peak at 17.4 ppm).
# [2] = background statement; cited from earlier work
compound,measurement,setting,value
CC1(C)O[C@@H]2C[C@H]3[C@@H]4C[C@H](F)C5=CC(=O)C=C[C@]5(C)[C@@]4(F)[C@@H](O)C[C@]3(C)[C@]2(C(=O)CO)O1 [Fluocinolone acetonide],polymorphic changes after exposure to water for an extended time period,[1],all polymorphic forms interconvert to the same form
same,solubility in water,[2],practically insoluble
